Literature values as cited in patent US20090053307A1, “IMMEDIATE-RELEASE T[…] FOR IMPROVED ORAL ABSORPTION OF 7-[(E)]-T-BUTY-LOXYMINOMETHYL] CAMPTOTHECIN” (SIGMA-TAU INDUSTRIE FAR[…] S.P.A., priority 2005, published 2009).

Test system: large cell pulmonary carcinoma (not SCLC, H-460)
Conditions: H-460 tumour line; from W097/31003

Question: Which “activity compared with reference compound topotecan” value does the source give for `CCC1(O)C(=O)OCc2c1cc1n(c2=O)Cc2c-1nc1ccccc1c2C#N` (stereo not shown) [CPT 83] here?
Answer: The value was “more active than topotecan”.
